Broadly, the IC50 is the concentration needed to halve the response being measured.

Sequence of ASK1 kinase (Q99683 whole entry): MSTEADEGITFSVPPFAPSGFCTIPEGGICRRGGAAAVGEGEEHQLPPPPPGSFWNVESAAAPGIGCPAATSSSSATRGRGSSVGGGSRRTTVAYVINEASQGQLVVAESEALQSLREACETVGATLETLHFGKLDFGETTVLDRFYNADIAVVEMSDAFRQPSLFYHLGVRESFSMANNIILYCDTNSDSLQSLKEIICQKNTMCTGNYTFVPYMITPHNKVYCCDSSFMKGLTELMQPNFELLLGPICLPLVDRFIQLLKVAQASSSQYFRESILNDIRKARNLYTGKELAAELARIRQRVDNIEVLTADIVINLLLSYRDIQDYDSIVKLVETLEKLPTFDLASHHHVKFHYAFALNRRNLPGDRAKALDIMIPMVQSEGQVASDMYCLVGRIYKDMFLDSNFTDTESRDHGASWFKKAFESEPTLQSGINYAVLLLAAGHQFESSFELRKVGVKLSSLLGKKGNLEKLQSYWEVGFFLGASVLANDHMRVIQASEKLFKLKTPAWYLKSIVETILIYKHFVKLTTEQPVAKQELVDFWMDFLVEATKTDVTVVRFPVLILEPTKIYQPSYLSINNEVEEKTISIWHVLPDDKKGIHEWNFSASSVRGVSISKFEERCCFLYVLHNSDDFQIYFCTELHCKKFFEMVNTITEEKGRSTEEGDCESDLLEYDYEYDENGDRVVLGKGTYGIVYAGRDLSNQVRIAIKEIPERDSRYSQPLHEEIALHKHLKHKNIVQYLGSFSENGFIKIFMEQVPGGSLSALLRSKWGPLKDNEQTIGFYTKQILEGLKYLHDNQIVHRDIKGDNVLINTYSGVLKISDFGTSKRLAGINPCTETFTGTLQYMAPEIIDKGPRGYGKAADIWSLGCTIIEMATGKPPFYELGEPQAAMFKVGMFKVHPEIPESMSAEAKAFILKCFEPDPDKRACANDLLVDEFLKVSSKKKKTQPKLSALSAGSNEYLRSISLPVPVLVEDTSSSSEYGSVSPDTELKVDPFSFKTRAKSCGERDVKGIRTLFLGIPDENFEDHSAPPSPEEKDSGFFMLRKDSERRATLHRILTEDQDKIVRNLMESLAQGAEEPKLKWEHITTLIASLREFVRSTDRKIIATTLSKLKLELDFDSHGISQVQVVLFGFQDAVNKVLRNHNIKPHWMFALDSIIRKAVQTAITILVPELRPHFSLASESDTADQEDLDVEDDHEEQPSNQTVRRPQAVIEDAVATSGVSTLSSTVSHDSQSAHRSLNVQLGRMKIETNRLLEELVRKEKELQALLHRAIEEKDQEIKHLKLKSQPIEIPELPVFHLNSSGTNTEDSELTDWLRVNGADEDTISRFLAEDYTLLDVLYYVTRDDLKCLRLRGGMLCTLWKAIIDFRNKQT

This assay addresses ASK1 kinase (Homo sapiens (Human), UniProt Q99683). The assay is described as follows: RBC Kinase Assay (33P-ATP radiometric, myelin basic protein substrate). It is filed as biochemical. Conditions: 20 ng ASK1 kinase, MBP substrate, 120 min at room temperature, 1% DMSO. Summed up:
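Radiometric filter-binding assay: 20 ng ASK1 with myelin basic protein in 20 mM Hepes pH 7.5, 10 mM MgCl2, 1 mM EGTA, 2 mM DTT, 1% DMSO; started with 33P-ATP, 120 min at room temperature. Reactions spotted on P81 paper, acid-washed, radioactivity counted; IC50 determined.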
`Cc1cc(F)c(C(=O)Nc2cccc3c2OC[C@@H](C)n2cnnc2-3)cc1-n1cnc(C2CC2)c1` [Example 1, (R)-5-(4-cyclopropyl-1H-imidazol-1-yl)-2-fluoro-4-methyl-N-(5-methyl-5,6-dihydrobenzo[f][1,2,4]triazolo[4,3-d][1,4]oxazepin-8-yl)benzamide] displayed an IC50 of 5.8 nM. Then `O=C(Nc1cccc2c1OCC(CO)n1cnnc1-2)c1cc(-n2cnc(C3CC3)c2)ccn1` (stereo not drawn) [Example 15, 4-(4-cyclopropyl-1H-imidazol-1-yl)-N-(5-(hydroxymethyl)-5,6-dihydrobenzo[f][1,2,4]triazolo[4,3-d][1,4]oxazepin-8-yl)picolinamide], with 5.8 nM; and `CC(C)Oc1cnc(C(=O)Nc2cccc3c2OC[C@H](C)n2nnnc2-3)cc1-n1cnc(C2CC2)c1` [Example 71, (S)-4-(4-cyclopropyl-1H-imidazol-1-yl)-5-isopropoxy-N-(5-methyl-5,6-dihydrobenzo[f]tetrazolo[1,5-d][1,4]oxazepin-8-yl)picolinamide], with 5.3 nM. Compound `O=C(Nc1cccc2c1OCC1(CC1)n1nnnc1-2)c1cc(-n2cnc(C3CC3)c2)c(N2CCOCC2)cn1` [Example 20, 4-(4-cyclopropyl-1H-imidazol-1-yl)-5-morpholino-N-(6H-spiro[benzo[f]tetrazolo[1,5-d][1,4]oxazepine-5,1′-cyclopropan]-8-yl)picolinamide] came in with an IC50 of 6 nM.

`Cc1cc(F)c(C(=O)Nc2cccc3c2OC[C@@H](C2CC2)n2nnnc2-3)cc1-n1cnc(C2CC2)c1` [Example 12, (R)-5-(4-cyclopropyl-1H-imidazol-1-yl)-N-(5-cyclopropyl-5,6-dihydrobenzo[f]tetrazolo[1,5-d][1,4]oxazepin-8-yl)-2-fluoro-4-methylbenzamide] returned a 50% inhibitory concentration (IC50) of 4.7 nM. In turn, `O=C(Nc1cccc2c1OC[C@@H](CF)n1nnnc1-2)c1cc(-n2cnc(C3CC3)c2)ccn1` [Example 31, (S)-4-(4-cyclopropyl-1H-imidazol-1-yl)-N-(5-(fluoromethyl)-5,6-dihydrobenzo[f]tetrazolo[1,5-d][1,4]oxazepin-8-yl)picolinamide] had an IC50 of 5.7 nM.
